These results are taken from publication PMC8777952, “Lignin Nanoparticles Deliver Novel Thymine Biomimetic Photo-Adducts with Antimelanoma Activity” (International Journal of Molecular Sciences, 2022).

As a reminder, the CC50 is the concentration giving 50% cytotoxicity. Lower therefore signals harm at low concentration. As a reminder, the IC50 is the concentration that inhibits the measured activity by half.

Data set [1] is described as follows: MTT cell viability assay, FB789 reference cell line. To be noted: FB789 cells (normal human fibroblast). The data set is classed as cell-based. The source says:
(§1) Preliminary sunscreen data of 4a-d have been reported focusing on SKH1-E cell line, human abdominal skin explants, and in vivo hairless mouse models. Data for photo-adducts 6a-d, 7a-d, and 8a-d are not available. Thymine photo-adducts are well recognized as responsible for the activation of different molecular pathways involved in the cellular response to UV damage, including DNA repair system, melanogenesis, and Nucleotide Excision Repair (NER) system. In addition, TOP1ccs trapped near photo-adducts activates BER and remove (6-4)PPs in NER-deficient cells. TOP1 is highly expressed in malignant tumors, including carcinomas of the colon, prostate, ovary, lung, and melanoma. […] For this reason, we decided to study the antimelanoma activity of 4a-d, 6a-d, and 8a-d against two melanoma cancer cell lines, namely SK-MEL28 and RPMI7951 bearing a different genetic background. The antimelanoma activity was determined using the MTT cell viability assay, following the absorbance change (λmax 570 nm and 630 nm). The human FB789 cell line was used as reference. The CC50 (cytotoxic concentration that causes death of 50% of viable cells), IC50 (minimum concentration inhibiting 50% of the melanoma cells), and Selective Index (SI) (ratio between IC50 of reference cell line versus melanoma cell line) values are reported in Table 5. […] Compounds 4a-d were ineffective against melanoma cell lines. […] 234. Next, the antimelanoma activity of compounds 8a and 8b was evaluated after loading inside LNPs.
(§2) FB789 was grown in DMEM/F10, RPMI7951 melanoma cancer cells were grown in Minimal Essential Medium (MEM), while SK-Mel 28 melanoma cancer cells were grown in Dulbecco’s Modified Eagle Medium (DMEM). All culture media were supplemented with 10% Fetal Bovine Serum (FBS) plus 1.0 mM glutamine (40 µg/mL). The antimelanoma activity of 4a-d, 6a-d, and 8a-d was evaluated by MTT viability assay according to reference. Briefly, aliquots of the appropriate compound ([…]) were solubilized in dimethyl sulfoxide (one drops, DMSO) and administered to the selected cell line. After incubation for 3 h at 37 °C with MTT (0.5 mg/mL) the supernatant was removed, and […] of lysis solution (10% SDS and 0.6% acetic acid) was added to dissolve the formazan crystals. Optical density detection was performed by DTX880 Multimode Detector (Beckman Coulter) with 630 nm (background) and 570 nm filters. The percentage of cell viability was calculated as follows: % cell viability = 100–% cell cytotoxicity. The experiments for the evaluation of the antimelanoma activity of LNPs/8a and LNPs/8b were performed in a similar way using the appropriate amount of nanoparticles containing 1.0 mmol of the active compound and analyzing the antimelanoma activity at three different release times (2, 4, and 24 h).
A general note: Formazan colour is commonly taken as a measure of viable cells.

Data set [2] deals with SK-Mel28. The data set can be described thus: MTT cell viability assay, SK-Mel28 melanoma cells. It is filed as cell-based, human. To be noted: for SI (SKMel28): 24 h, ratio reference cell line FB789 versus melanoma cell line; for IC50: Homo sapiens, SK-MEL-28, 24 h.
Description: as §1, §2

Data set [3] concerns RPMI7951. The data set can be described thus: MTT cell viability assay, RPMI7951 melanoma cells. To be noted: for SI (RPMI7951): 24 h, ratio reference cell line FB789 versus melanoma cell line; for IC50: Homo sapiens, RPMI-7951, 24 h. It is filed as cell-based, human.
Description: as §1, §2

The nature of data set [4]: Loading capacity and loading efficiency of lignin nanoparticles. The data set is classed as physicochemical. How it is done: A further increase in the secondary solvent afforded low stable colloidal LNPs (18 mL; Table 3, entry 4) and aggregates (24 mL; Table 3, entry 5). Finally, LNPs were not formed after the addition of high volumes of deionized water (Table 3, entries 6–8). The optimal conditions affording stable colloidal LNPs (1:5 w/w and 1:10 w/w 4a/KL ratio, 3.0 mL of DMI/water 2:1 v/v, and 6.0 mL of secondary solvent) were successively applied for the encapsulation of 4b-d, and of the most abundant photo-adducts 6a-d and 8a-d. The loading capacity (LC) and loading efficiency (LE) Equations (1) and (2) were measured as a function of the concentration of the encapsulated compound [55, 56, 57, 58].
LNPs were separated by centrifugation, and the supernatant was analyzed by HPLC at λmax value of the encapsulated compound (271 nm for 4a-d, 191 nm for 6a-d, and 192 nm for 8a-d, respectively). Irrespective from the experimental conditions, the highest LE and LC were obtained in the presence of the highest value of the compound/KL ratio (compound/KL ratio of 1:5). […] (1) LC %:weight of starting drug−weight of unloaded drug/weight of lignin (2) LE %:weight of starting drug−weight of unloaded drug/weight of starting drug
LNPs were produced and loaded by the nanoprecipitation technique. The appropriate compound (3 mg) was dissolved in DMI/water (3.0 mL) at 50 °C under gentle stirring conditions followed by the addition of KL (15 mg). The fast addition of deionized water (6.0 mL) instantaneously produced LNPs. LNPs were then recovered by centrifugation (7500 rpm), washed with deionized water (10 mL) for 3 times, and lyophilized. The loading capacity (LC) and loading efficiency (LE) were evaluated by UHPLC analysis.

On the set-up of data set [5]: method as in PMID 25075037. To be noted: commercial antitumor agents; cited from earlier work.
Data set [6] is described as follows: UV shielding (photo-protective) capacity of loaded LNPs. The data set is classed as physicochemical. To be noted: after 15 min of irradiation, loaded in LNPs versus free compound. How it is done:
The UV shielding capacity of LNPs allows them to protect bioactive compounds from premature deactivation. To evaluate the photo-protective role of LNPs we studied the irradiation of LNPs/4a, LNPs/6a, LNPs/7a, and LNPs/8a as a selected representative example of thymine dimers. The samples were suspended in DMI/water mixture (2:1 v/v, 1.0 mL) and treated with UV under previously reported experimental conditions. At scheduled times (5, 10, and 15 min), aliquots (0.2 mL) of the suspension were withdrawn and analyzed. An excess of DMI (1.0 mL) was added to disaggregate LNPs, followed by filtration of residual lignin. The residual concentrations of 4a, 6a, 7a, and 8a (expressed as % with respect to the starting material) were evaluated at λmax 271 nm. Data were compared with 4a, 6a, 7a, and 8a after irradiation under similar experimental conditions (Figure 3).
LNPs/4a were prepared following the standard procedure previously described. Typically, LNPs/4a (1.0 mg) suspended in DMI/water mixture (2:1 ratio, 1.0 mL) were deposited on a glass lens and irradiated with Haerus source (250 Watt, the lamp was at 20.0 cm distance). […] The photo-protection capacity of LNPs was determined by measuring the decrease in absorbance (λmax 271 nm) of recovered 4a compared with free reference (Varian UVCary-50). […]

In data set [1], `Cc1cn(CCCCn2cc(C)c(=O)[nH]c2=O)c(=O)[nH]c1=O` [Compound 4b, N1,N1′-(butane-1,4-diyl)bis-thymine] returned a CC50 at 24 h of 839 ± 10.9 µM. In addition, in data set [2], the “SI (SKMel28)” value worked out at 4.9 and inhibition was half-maximal at 169 ± 4.6 µM (IC50). Further, in data set [3], the “SI (RPMI7951)” value turned out to be 0.07 and the IC50 came to 12400 µM. Besides, in data set [4] (Compd/KL ratio 1:5), the LC% was 10.38% and the LE% was determined as 51.91%. For the same compound, in data set [4] (Compd/KL ratio 1:10), the LC% was found to be 4.24% and the LE% is 52.40%.

`CC12C(=O)NC(=O)N3CCCCCCN4C(=O)NC(=O)C1(C)C4C32` (stereo not shown) [Compound 6d, 9a,9b-dimethyldecahydro-6a,8,11,12a-tetraazacyclodeca[def]biphenylene-7,9,10,12(8H,11H)-tetraone] gave a CC50 at 24 h in data set [1] of 377 ± 14.8 µM. Besides, in data set [2], the “SI (SKMel28)” value was 4.3 and the IC50 stood at 87.9 ± 1.9 µM. For the same compound, in data set [3], the “SI (RPMI7951)” value amounted to 1.6 and the midpoint of inhibition, the IC50, lay at 234.9 ± 1.6 µM. In data set [4] (Compd/KL ratio 1:5), the LC% worked out at 13.22% and the LE% is 72.61%. Besides, in data set [4] (Compd/KL ratio 1:10), the LC% came to 11.54% and the LE% is on record as 71.98%.

In the case of `COc1cccc2c1C(=O)c1c(O)c3c(c(O)c1C2=O)C[C@@](O)(C(=O)CO)C[C@@H]3O[C@H]1C[C@H](N)[C@H](O)[C@H](C)O1` [doxorubicin], the SI in data set [5] is 26.0.

`CC12C(=O)NC(=O)N3CCCCN4C(=O)NC(=O)C1(C)C4C32` (stereo not shown) [Compound 6b, 7a,7b-dimethyloctahydro-4a,6,9,10a-tetraazacycloocta[def]biphenylene-5,7,8,10(6H,9H)-tetraone] yielded a CC50 at 24 h in data set [1] of 109 ± 5.4 µM. Moreover, in data set [2], the “SI (SKMel28)” value is given as 6.09 and the IC50 was 17.9 ± 1.9 µM. In data set [3], the “SI (RPMI7951)” value is on record as 1.4 and the IC50 was 77.8 ± 1.8 µM. Also, in data set [4] (Compd/KL ratio 1:5), the LC% is 9.59% and the LE% came to 50.94%. Also, in data set [4] (Compd/KL ratio 1:10), the LC% worked out at 9.33% and the LE% turned out to be 50.74%.

With `Cc1cn2c(=O)nc1C1N(CCC2)C(=O)NC(=O)C1(C)O` (stereo not shown) [Compound 7a, 4-hydroxy-4,6-dimethyl-4,4a,10,11-tetrahydro-1H,9H-5,8-(azenomethano)pyrimido[1,6-e][1,5]diazonine-1,3,13(2H)-trione], the photo-protection capacity in data set [6] is approximately 40%.

Turning to `CC[C@@]1(O)C(=O)OCc2c1cc1n(c2=O)Cc2cc3ccccc3nc2-1` [camptothecin], in data set [5], the SI is on record as 88.3.

The compound `Cc1cn(CCCn2cc(C)c(=O)[nH]c2=O)c(=O)[nH]c1=O` [Compound 4a, N1,N1′-(propane-1,3-diyl)bis-thymine] returned a CC50 at 24 h in data set [1] of 1450 ± 56.2 µM. Further, in data set [2], the “SI (SKMel28)” value was determined as 4.7 and the IC50 came to 304.3 ± 2.4 µM. In data set [3], the “SI (RPMI7951)” value was 2.7 and half-maximal inhibition (IC50) required 543.1 ± 2.7 µM. In data set [4] (Compd/KL ratio 1:5), the LC% came to 5.59% and the LE% came out at 49.94%. For the same compound, in data set [4] (Compd/KL ratio 1:10), the LC% is reported as 4.93% and the LE% is 49.26%.

`CC12C(=O)NC(=O)N3CCCCCN4C(=O)NC(=O)C1(C)C4C32` (stereo not shown) [Compound 6c, 8a,8b-dimethyloctahydro-1H-5a,7,10,11a-tetraazacyclonona[def]biphenylene-6,8,9,11(7H,10H)-tetraone] returned a CC50 at 24 h in data set [1] of 234 ± 7.3 µM. Moreover, in data set [2], the “SI (SKMel28)” value amounted to 0.83 and the half-inhibitory concentration (IC50) is 282 ± 4.4 µM. For the same compound, in data set [3], the “SI (RPMI7951)” value is on record as 1.2 and it took 195 ± 3.8 µM to reach half-maximal inhibition (IC50). Also, in data set [4] (Compd/KL ratio 1:5), the LC% is recorded as 11.46% and the LE% worked out at 51.12%. Moreover, in data set [4] (Compd/KL ratio 1:10), the LC% came to 10.48% and the LE% was found to be 47.86%.

As for `CC12C(=O)NC(=O)N3CCCN4C(=O)NC(=O)C1(C)C4C32` (stereo not shown) [Compound 6a, 6a,6b-dimethylhexahydro-1H-3a,5,8,9a-tetraazacyclohepta[def]biphenylene 4,6,7,9(5H,8H)-tetraone], the half-maximal cytotoxic concentration (CC50) at 24 h in data set [1] turned out to be 375 ± 28.2 µM. In data set [2], the “SI (SKMel28)” value is reported as 4.39 and the IC50 stood at 85.2 ± 0.9 µM. In addition, in data set [3], the “SI (RPMI7951)” value is 2.7 and the IC50 stood at 138 ± 2.1 µM. In addition, in data set [4] (Compd/KL ratio 1:5), the LC% is 6.93% and the LE% is 37.40%. Further, in data set [4] (Compd/KL ratio 1:10), the LC% was 6.81% and the LE% is listed as 41.12%.

Regarding `O=c1[nH]cc(F)c(=O)[nH]1` [Compound 5-FU, 5-fluro uracil], the SI in data set [5] is 55.6.

Consider `Cc1cn(CCCCCn2cc(C)c(=O)[nH]c2=O)c(=O)[nH]c1=O` [Compound 4c, N1,N1′-(pentane-1,5-diyl)bis-thymine], for which the midpoint of cytotoxicity in data set [1], the CC50 at 24 h, lay at 1660 ± 36.3 µM. Besides, in data set [2], the “SI (SKMel28)” value is reported as 5.7 and half-maximal inhibition (IC50) required 292.9 ± 2.5 µM. Moreover, in data set [3], the “SI (RPMI7951)” value amounted to 4.6 and half-maximal inhibition (IC50) was put at 357 ± 5.1 µM. Further, in data set [4] (Compd/KL ratio 1:5), the LC% was determined as 12.52% and the LE% came out at 69.70%. For the same compound, in data set [4] (Compd/KL ratio 1:10), the LC% is 6.97% and the LE% came out at 62.59%.
